Results from US6172038A, “Antipathogenic peptides and compositions comprising them” (priority 1996, dated 2001).

Columns and labels:
Format in all cases: cell-based
Bacillus megaterium Bm11 = assay: Antibacterial activity (MIC), growth inhibition in 96-well plates; details: 100% inhibition of growth after 18-20 h at 37° C.
Escherichia coli D21 = assay: as above
[1] = tested on: P. aeruginosa and E. coli; assay: Effect of pooled human serum on antibacterial activity
Description: (vi) Preparation of serunl Blood was collected from five volunteers and allowed to clot at room temperature for 4 h. The blood was then centrifuged for 15 min at 1500 g, and the serum was removed and pooled. The serum complement was inactivated by heating at 56° C. for 30 min.
(viii) Antibacterial activity of the peptides. The antibacterial activity of the diastereomers was examined in sterile 96-well plates (Nunc F96 microtiter plates) in a final volume of 100 μL as follows: Aliquots (50 μl) of a suspension containing bacteria at a concentration of 10^6 Colony-Forming Units (CFU)/ml LB (Lauria broth) medium were added to 50 μL of water or 66% pooled normal human serum in PBS, containing the peptide in 2-fold serial dilutions. Growth inhibition was determined by measuring the absorbance at 492 nm with a Microplate autoreader El309 (Bio-tek Instruments), following incubation for 18-20 h at 37° C. […] The bacteria used were: Escherichia coli D21, Pseudomonas aeruginosa ATCC 27853, Acinetobacter calcoaceticus Acl1, Salmonella typhimurium LT2, Bacillus megaterium Bml1, Micrococcus luteus ATCC 9341, Bacillus subtilis ATCC 6051.

[2] = tested on: Bacillus subtilis ATCC 6051; assay: Antibacterial activity (MIC), growth inhibition in 96-well plates; details: 100% inhibition of growth after 18-20 h at 37° C.
[3] = tested on: Pseudomonas aeruginosa ATCC 27853; assay: Antibacterial activity (MIC), growth inhibition in 96-well plates; also synergy with tetracycline
Description: (viii) Antibacterial activity of the peptides.
Antibacterial activity of the mixtures was determined as described in Experimental procedures, section (xii).

[4] = tested on: Acinetobacter calcoaceticus Ac11; assay: Antibacterial activity (MIC), growth inhibition in 96-well plates; details: 100% inhibition of growth after 18-20 h at 37° C.
[5] = tested on: human red blood cells (hRBC); assay: Hemolysis of human red blood cells; details: 50 μM peptide, 30 min at 37° C.
Description: (ix) Hemolysis of human red blood cells. The peptides were tested for their hemolytic activities against human red blood cells (hRBC). Fresh hRBC with EDTA were rinsed 3 times with PBS (35 mM phosphate buffer/0.15 M NaCl, pH 7.3) by centrifugation for 10 min at 800 g and resuspended in PBS. Peptides dissolved in PBS were then added to 50 μL of a solution of the stock hRBC in PBS to reach a final volume of 100 μL (final erythrocyte concentration, 5% v/v). The resulting suspension was incubated under agitation for 30 min at 37° C. The samples were then centrifuged at 800 g for 10 min. Release of hemoglobin was monitored by measuring the absorbance of the supernatant at 540 nm. Controls for zero hemolysis (blank) and 100% hemolysis consisted of hRBC suspended in PBS and Triton 1%, respectively.

[6] = 100% inhibition of growth after 18-20 h at 37° C.

dermaseptin S [reference compound]
Minimal Inhibitory Concentration B. megaterium (Bm11) (Bacillus megaterium Bm11): 0.5 µM
Minimal Inhibitory Concentration E. coli (D21) 0% Serum (Escherichia coli D21; 0% Serum): 6 µM
Minimal Inhibitory Concentration E. coli (D21) 33% Serum (Escherichia coli D21; 33% pooled human serum): 50 µM
Minimal Inhibitory Concentration E. coli (D21) (Escherichia coli D21; [6]): 6 µM
fold less active in the presence of serum [1]: 8-10 fold
Minimal Inhibitory Concentration B. subtilis (ATCC 6051) [2]: 4 µM
Minimal Inhibitory Concentration P. aeruginosa (ATCC-27853) 0% Serum ([3]; 0% Serum): 25 µM
Minimal Inhibitory Concentration P. aeruginosa (ATCC-27853) 33% Serum ([3]; 33% pooled human serum): 200 µM
Minimal Inhibitory Concentration P. aeruginosa (ATCC 27853) [3, 6]: 25 µM
Minimal Inhibitory Concentration A. calcoaceticus (Ac11) [4]: 3 µM
% hemolysis at 50 μM peptide [5]: 9%
